Values quoted from earlier work in article PMC10855781 (International Journal of Molecular Sciences, 2024).

How the values were obtained:
[1] = test system: HT-29 human colon cancer; conditions: ref [82]
Source text: Table 3 In vivo tumor growth inhibition of a few relevant Dau-GnRH-III conjugates. | column: HT-29 orth. SCID [%] || Starting from these promising results, Dau conjugates with further GnRH-III derivatives using different short-chain fatty acids (on the side chains of Lys in position 4) were developed. […] The experiment finished on day 30, but the animals in the group treated with Dau had to be sacrificed on day 23. […] However, these numbers cannot be directly compared because the termination days were different during the experiment. The toxicities of the compound ...

[2] = test system: human umbilical vein endothelial cells (HUVEC); parameters: key: 0: no cardiotoxicity; +: weak; ++: moderate; +++: strong cardiotoxicity; conditions: long-term (0–72 h) cytotoxic effect, impedimetric; ref [75]
Source text: Table 2 Comparative study of cytotoxic effects and cardiotoxicity elicited by selected GnRH-based anthracycline conjugates. | column: Cardiotoxicity

[3] = test system: C26 murine colon cancer; conditions: ref [20]
Protocol: Table 3 In vivo tumor growth inhibition of a few relevant Dau-GnRH-III conjugates. | column: C26 ^a s.c. Balb/c [%] || In our experiments, GnRH-III was applied as a targeting peptide. […] The effect highly depended on the treatment schedule. In the first attempt, the conjugate was administered i.p. at a dose of 8.86 μmol (5 mg Dau-content/kg body weight) five times on days 7, 9, 11, 14 and 16 after tumor transplantation ...

[4] = test system: human colorectal adenocarcinoma (HT-29); conditions: Table 2; ref [75]
Source text: Table 2 Comparative study of cytotoxic effects and cardiotoxicity elicited by selected GnRH-based anthracycline conjugates. || Table 3 In vivo tumor growth inhibition of a few relevant Dau-GnRH-III conjugates. | column: Cytostatic Effect (IC50: μM) on HT-29 cells

SMILES: COc1cccc2c1C(=O)c1c(O)c3c(c(O)c1C2=O)C[C@@](O)(C(C)=O)C[C@@H]3O[C@H]1C[C@H](N)[C@H](O)[C@H](C)O1 [Dau, daunomycin]
- relative liver weight loss in comparison with the controls ([1]; Dau 1 mg/kg i.v. weekly for 7 weeks): 11%
- tumor weight reduction ([1]; conjugates 17.72 μmol (10 mg Dau content)/kg s.c. x7, end day 30, Dau 1 mg/kg days 7, 13, 20, sacrificed day 23): 84.3%
- reduction in tumor weight ([1]; conjugates 15 mg Dau content/kg i.v. x5 from day 5, then 7.5 mg i.p. x8, twice a week, Dau 1 mg/kg i.v. weekly for 7 weeks): 29.7%
- proliferation index compared to the controls ([1]; same experiment as E44, average): 98.6%
- vascularization rate compared to the controls ([1]; same experiment as E44): 112.5%
- rate of changes in the liver and body weights ([1]; same experiment as E49): 70.6%
- Cardiotoxicity, HUVEC [2]: +++
- tumor volume inhibition ([3]; free Dau 2 mg/kg (3.55 μmol) days 7, 9, 11, 14, 16, day 26): 22.6%
- median survival rate in comparison to the control group ([3]; free Dau 2 mg/kg days 7, 9, 11, 14, 16): 0.81
- IC50 [4]: 300 ± 200 nM
